# Assay results from US11001802B2, “Surface of a vessel with polystyrene, nitrogen, oxygen and a static sessile contact angle for attachment and cultivation of cells” (Nunc A/S, priority 2008, dated 2021).
# Assays:
# HEK293 cells [1] = experiment: HEK293 cell attachment, number of viable cells by LDH activity (Example 19); format: cell-based, human; conditions: Surface 4 and CellBIND surface, 2.0 and 5.0 μM
# Text: Human embryonic kidney cells 293 (HEK293, ECACC no. 85120602) were maintained in Eagle's Minimum Essential Medium (EMEM; Lonza, Verviers, Belgium) containing 10% fetal bovine serum (FBS; Lonza). The cells were adapted to Pro293a-CDM medium (Lonza), a chemically defined, serum-free medium optimized for cultivation of adherent HEK293, by gradually and over several passages using the sequential ratios of 3:1, 1:1, 1:3, 1:7, and finally 0:1 of serum-supplemented EMEM and Pro293a-CDM medium. For maintenance and adaptation, HEK293 cells were seeded at 2.0×10^4 cells/cm^2 in 75-cm^2 flasks with Nunclon Delta™ surface (Thermo Fisher Scientific, Roskilde, Denmark) and passaged at 70-80%/confluence using Trypsin/EDTA for dissociation.
# Another 100 μl of Pro293a-CDM medium with HEK293 cells was added to the wells (4.0×10^4 cells/cm^2). […]
# The number of viable cells in the wells was then determined using a lactate dehydrogenase (LDH) activity kit from Roche, Switzerland. […] The reaction was stopped by adding 50 μl of 1.0 M HCl, and the absorbance at 490 nm was measured in a microplate reader (Genios Pro; Tecan, Austria). The number of cells was calculated using the A490 values from these samples and from standards containing LDH from a known number of cells. […]
# HEK293 cells [2] = experiment: HEK293 attachment and growth, culture confluence by IncuCyte Plus (Examples 20, 21); format: cell-based, human
# Description: HEK293 cells were maintained in EMEM (Lonza) containing 10% FBS (Lonza). Cells were passaged at 70-80% confluence using Trypsin/EDTA for dissociation, and seeded at c 2.0×10^4 cells/cm^2 in 75-cm^2 flasks with Nunclon Delta™ surface (Thermo Fisher Scientific, Roskilde, Denmark).
# EMEM (500 μl) supplemented with 10% FBS containing 1.0, 5.0, 10, 15 or 20 μM Y-27632 (Sigma Chemical Co.), or 0.4, 1.2, 1.6, 2.4 or 2.8 μM H-1152 (Calbiochem, EMD Chemicals Inc., Darmstadt, Germany) was dispensed in Multidish 24-well plates with either Surface 4 or a non-treated (but gamma irradiated; 25 kGy) polystyrene surface. Another 500 μl of EMEM supplemented with 10% FBS and containing HEK293 cells were added to the wells (2.0×10^4 cells/cm^2). The cultures were placed in an IncuCyte™ Plus (Essen Instruments, Michigan, USA) and incubated at 37° C. in a humidified atmosphere of 5% CO2 in air. The IncuCyte™ Plus is an automated imaging platform, configured to fit inside a CO2 incubator, and designed to provide kinetic, non-invasive live cell imaging by acquiring phase contrast images of the cells at user-defined times and locations within the cultures. The primary metric of the instrument is culture confluence, that is, the fraction of the surface that is covered by cells. The HEK293 cells were incubated for 72 hours without manipulations, and images were collected every two hours at 9 positions in triplicate cultures. Culture confluence was determined using the IncuCyte™ Plus software (v. 3.4.1.25966).
# EMEM (1.0 ml) supplemented with 10% FBS containing 0.4, 0.8, 1.2, 1.6, 2.0, 2.4 or 2.8 μM H-1152 was dispensed in Multidish 12-well plates with Surface 4. Another 1.0 ml of EMEM supplemented with […] and containing HEK293 cells were added to the wells (4.0×10^4 cells/cm^2). The cultures were placed in an IncuCyte™ Plus, and incubated at 37° C. in a humidified atmosphere of 5% CO2 in air for 42 hours (images were collected every 6 hours). One ml of culture medium was then removed by pipetting, and 1.0 ml EMEM supplemented with 10% FBS containing 0.2, 0.4, 0.6, 0.8, 1.0, 1.2 and 1.4 μM H-1152 was added. The cultures were placed in the IncuCyte™ Plus again, and images were collected every hour over the following 25 hours. Images were collected at 9 positions in triplicate cultures, and culture confluence was determined using the IncuCyte™ Plus software. Images from the IncuCyte™ Plus collected at specific positions in HEK293 cell cultures grown in the absence or presence of H-1152 (0.6 μM) was retrieved and presented as phase-contrast micrographs for the comparison of HEK293 culture morphology at the following time points: start of incubation (0 hours), just before medium change (42 hours), 1 hour after the medium change (43 hours), and, finally, after 52 hours of incubation.
smiles,measurement,setting,value
"C[C@@H](N)[C@H]1CC[C@H](C(=O)Nc2ccncc2)CC1 [Surface Y-27632, Y-27632]",attachment of HEK293 cells,HEK293 cells [1]; EMEM with 10% FBS,enhanced attachment
same,attachment of HEK293 cells,HEK293 cells [1]; Pro293a-CDM medium,enhanced attachment
same,attachment and growth of HEK293 cells,"HEK293 cells [2]; Surface 4, increasing concentration",enhances attachment and growth
same,growth and attachment of HEK293 cells,"HEK293 cells [2]; non-treated polystyrene surface, 10 μM Y-27632, 0.6-1.2 μM H-1152",slightly enhanced
